Source: patent publication US20060153894A1, “Multi-compartment delivery system” (priority 2004, published 2006)

System: TNF-α secretion from LPS-stimulated PBMC
Assay: TNF-α secretion from LPS-stimulated PBMC with p38 inhibitor loaded in the outer compartment (ELISA)
Assay type: cell-based, human
Details: outer compartments loaded with 10.99 ng, 109.9 ng or 1099 ng, 1×10^6 PBMC on inner compartment, LPS 10 ng/ml overnight
Experimental: Outer compartments were made from a composite matrix similar to the one prepared in Example 3. The compartments were loaded with three different amounts (10.99 ng, 109.9 ng, or 1099 ng) of p38 kinase inhibitor (JNJ 3026582, also known as RWJ 67657). The chemical structure of this compound (4-[4-(4-fluorophenyl)-1-(3-phenylpropyl)-5-44-pyridinyl)-1H-imidazol-2-yl]-3-butyn-1-ol) has been previously documented (Wadsworth et al., J. Pharm. Exp. Ther 291:680-687, 1999).
The inner compartments were prepared from a non-woven Vicryl® fibrous matrix fabricated as described in Example 2. Mononuclear cells were freshly isolated from human peripheral blood, counted and adjusted to a final cell number in RPMI-1640 (Invitrogen Life Technologies, Carlsbad, Calif.) with 1% fetal bovine serum (FBS, HyClone, Logan, UT). A total of 1×10^6 cells in a final volume of 50ul were seeded onto the inner compartments.
The two compartments were combined and pre-cultured for 1 hour in a 24-well plate with 0.5 ml culture medium. A stimulus of LPS (lipopolysaccharide) (10 ng/ml; Sigma, St. Louis, Mo.) was added to each well and incubated overnight at 37° C., 5%CO2. Supernatant from each well was collected and analyzed for TNF-α content using a standard commercial ELISA kit (R&D Systems, Minneapolis, Minn.). […]

OCCC#Cc1nc(-c2ccc(F)cc2)c(-c2ccncc2)n1CCCc1ccccc1 [RWJ 67657]
inhibition of TNF-α secretion: dose dependent inhibition
inhibition of TNF-α secretion (listed as p38 inhibitor): inhibited in a dose-dependent manner
